# B1: alpha2 -antiplasmin: specific plasmin inhibitor (protein, UniProt P08697 40-491, looked up)
# Alpha-2-antiplasmin: NQEQVSPLTLLKLGNQEPGGQTALKSPPGVCSRDPTPEQTHRLARAMMAFTADLFSLVAQTSTCPNLILSPLSVALALSHLALGAQNHTLQRLQQVLHAGSGPCLPHLLSRLCQDLGPGAFRLAARMYLQKGFPIKEDFLEQSEQLFGAKPVSLTGKQEDDLANINQWVKEATEGKIQEFLSGLPEDTVLLLLNAIHFQGFWRNKFDPSLTQRDSFHLDEQFTVPVEMMQARTYPLRWFLLEQPEIQVAHFPFKNNMSFVVLVPTHFEWNVSQVLANLSWDTLHPPLVWERPTKVRLPKLYLKHQMDLVATLSQLGLQELFQAPDLRGISEQSLVVSGVQHQSTLELSEVGVEAAAATSIAMSRMSLSSFSVNRPFLFFIFEDTTGLPLFVGSVRNPNPSAPRELKEQQDSPGNKDFLQSLKGFPRGDKLFGPDLKLVPPMEEDYPQFGSPK
# B2: PAI2: placental inhibitors: these include the inhibitors released from the placenta and leukocytes (protein, UniProt P05120 1-415, looked up)
# Plasminogen activator …: MEDLCVANTLFALNLFKHLAKASPTQNLFLSPWSISSTMAMVYMGSRGSTEDQMAKVLQFNEVGANAVTPMTPENFTSCGFMQQIQKGSYPDAILQAQAADKIHSSFRSLSSAINASTGNYLLESVNKLFGEKSASFREEYIRLCQKYYSSEPQAVDFLECAEEARKKINSWVKTQTKGKIPNLLPEGSVDGDTRMVLVNAVYFKGKWKTPFEKKLNGLYPFRVNSAQRTPVQMMYLREKLNIGYIEDLKAQILELPYAGDVSMFLLLPDEIADVSTGLELLESEITYDKLNKWTSKDKMAEDEVEVYIPQFKLEEHYELRSILRSMGMEDAFNKGRANFSGMSERNDLFLSEVFHQAMVDVNEEGTEAAAGTGGVMTGRTGHGGPQFVADHPFLFLIMHKITNCILFFGRFSSP
# Legend:
# [1] = target: T1, plasmin and alpha2-antiplasmin (Homo sapiens, UniProt P00747); assay: Slowing of the reaction between plasmin and alpha2-antiplasmin by omega-amino carboxylic acids; format: biochemical; details: lysine 10 to 3,000 mM, epsilon-aminocaproic acid 2 to 500 mM, tranexamic acid 0.1 to 50 mM
# T1 construct: native proteins
# T1 sequence (P00747 97-810, one chain of several): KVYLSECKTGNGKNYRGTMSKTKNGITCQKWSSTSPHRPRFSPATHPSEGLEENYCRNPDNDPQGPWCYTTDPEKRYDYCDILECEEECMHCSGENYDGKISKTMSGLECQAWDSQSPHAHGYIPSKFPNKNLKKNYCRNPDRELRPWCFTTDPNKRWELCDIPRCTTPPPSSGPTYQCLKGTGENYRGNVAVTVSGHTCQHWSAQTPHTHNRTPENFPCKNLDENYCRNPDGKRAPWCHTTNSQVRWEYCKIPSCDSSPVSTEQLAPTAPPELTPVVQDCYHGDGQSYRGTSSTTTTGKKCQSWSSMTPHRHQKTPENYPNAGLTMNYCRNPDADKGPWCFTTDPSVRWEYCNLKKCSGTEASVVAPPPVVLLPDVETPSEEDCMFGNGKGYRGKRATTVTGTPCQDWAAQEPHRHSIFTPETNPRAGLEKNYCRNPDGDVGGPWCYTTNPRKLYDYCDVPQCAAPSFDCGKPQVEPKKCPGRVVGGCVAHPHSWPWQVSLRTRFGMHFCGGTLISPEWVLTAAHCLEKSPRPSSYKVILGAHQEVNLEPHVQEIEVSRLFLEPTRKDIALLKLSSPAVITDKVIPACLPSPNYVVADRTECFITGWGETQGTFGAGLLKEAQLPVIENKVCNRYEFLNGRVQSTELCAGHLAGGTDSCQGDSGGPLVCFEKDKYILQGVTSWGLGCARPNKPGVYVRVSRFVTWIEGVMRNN
# human alpha-thrombin = assay: Comparison Experiment 13: oxidation resistance of thrombin; format: biochemical; details: 500 nmol of chloramine T or 500 times the dose of H202
# [2] = system: plasminogen activator inhibitors; details: Lawrence and Loskutoff, Biochemistry 25, 6351-6355, 1986; cited from earlier work
# [3] = system: antithrombin III (AT III); assay: Comparison Experiment 13: oxidative inactivation of antithrombin III; format: biochemical; details: 37° C., 15 min preincubation, pH 8.8
# Description: 50 pmol of AT III in 50 μl of 50 mM Tris, 100 mM NaCl, 0.1% (w/v) Triton×100, pH 8.8 buffer, are preincubated with increasing quantities of chloramine T or hydrogen peroxide in 50 μl of distilled water at 37° C. for 15 min. Then 3 pmol of human alpha-thrombin, 2.5 IU of heparin and 2 KIU of aprotinin in 500 μl of 100 mM Tris, 150 mM NaCl, pH 8.2, are added, and the mixture is incubated at 37° C. for 5 min. Addition of 500 μl of 0.4 mM H-D-CHA-But-ArgpNA was followed by further incubation for 3 min (37° C.). The reaction was stopped by 100 μl of 8.5 M acetic acid, and the change in extinction at 405 nm was determined.
# PAI1 = assay: Example 5a: determination of PAI2 via preincubation with polycation-containing PA reagent; format: biochemical; details: protamine chloride 100 U/ml or polylysine 500 μg/ml
# urokinase [4] = assay: Comparison Experiment 1: conversion of chromogenic plasmin substrate / activity of urokinase in plasma with lysine and/or ammonium peroxodisulfate; format: biochemical
# Description: 50μl of a plasma which is deficient in alpha2 -antiplasmin and has been prepared by immunoadsorption, as well as 1:2, 1:4 and 1:8 mixtures of this deficient plasma with normal plasma, where mixed with 200 μl or solution C (plasminogen activator reagent).
# […] of a 3 mM solution of H-D-Phe-Tyr-Arg-ANBA . 2 HCl in solution A and 500 µl of a plasminogen solution (2 CTA-U/ml) in solution A were added to the samples, the mixtures were incubated at 37° C. for 20 min, subsequently 100 μL of 8.5 M acetic acid were used to stop, and the extinction at 405 nm was determined. […] It is evident that addition of lysine increases the activity of urokinase by more than 100%.
# plasmin [5] = assay: Comparison Experiments 5, 6, 8: optimization of reagent concentration in functional PAI (PA) determination (generated plasmin activity); format: biochemical
# Description: (§1) Preincubation of 50 μl of sample with 200 μl of a variant of solution C (plasminogen activator dissolved in basic buffer U) at 37° C. for five minutes was followed by addition of 200 μl of a variant of plasminogen reagent (F), composed of 100 mM Tris-HCl pH 8.4, crosslinked polypeptides 1%, ^R Triton×100 0.1%, 100 mM NaCl without tran-examic acid, NaN3 0.01 % (basic buffer U) with 10 CTA-U/ml plasminogen and 200 μl of distilled water with 10 mM chloramine T, 3 mM tranexamic acid to the reaction mixture. The mixture was incubated at 37° C. for 5 min, and 500 μl of 0.6 mM chromogenic plasmin substrate HD-Nva-CHA-Lys-pNA in 480 mM NaCl (or, as a substitute, 200 mM CsCl) were added. The resultant linear change in extinction, delta A/min, at 405 nm was followed.
# plasmin [6] = assay: Comparison Experiment 11: effect of chloramine T and/or tranexamic acid on plasmin activity in the functional PAI assay; format: biochemical; details: for delta A/4 min: 405 nm
# Description: as §1
# plasmin [7] = assay: Oxidative inactivation of alpha2-antiplasmin; format: biochemical
# Text: Accurate determination of the said proteins requires that specific and non-specific plasmin inhibitors be quantitatively inactivated. […] This effect corresponds to expectations inasmuch as the plasminogen activator inhibitors belong to the family of serine protease inhibitors (serpins) whose archetype, namely alpha1 -protease inhibitor, contains an oxidizable methionine in the active center. Oxidation of this methionine results in a methionine sulfoxide, and the inhibitory functions are lost with the formation thereof. Lawrence and Loskutoff show, both for alpha1 -protease inhibitor and for plasminogen activator inhibitor, that the inactivation is reversible by treatment with dithiothreitol and methionine-sulfoxide-peptide reductase, i.e. under the conditions described therein the plasminogen activator inhibitor is demonstrably inactivated by oxidation. It was all the less to be expected that the complexes of plasminogen activator and plasminogen activator inhibitor produced in the reaction remain intact even under the oxidizing conditions according to the invention. […] Furthermore, it is very remarkable that the reaction of a non-inhibited plasminogen activator with its substrate, a natural or synthetic plasminogen, as well as the enzymatic reactions dependent thereon, take place undisturbed during the oxidation process.
# plasmin [8] = details: Shieh and Travis, J.Biol.Chem. 262, 6055-6059, 1987; cited from earlier work
# urokinase [9] = assay: Example 4: oxidation sensitivity of PAI1 and PAI2 (oxidation before addition of plasminogen activator reagent); format: biochemical; details: oxidation with chloramine T before addition of plasminogen activator reagent
# Description: 50 μl of sample were incubated with 500 μl of solution A (basic buffer) and 50 μl of solution B (oxidizing reagent) at 37° C. for 10 min. Addition of 200 μl of solution C (plasminogen activator reagent) was followed by incubation at 37° C. for 5 min. The substrate conversion was started by addition of 200 μl of solution E (plasmin substrate reagent) and 100 μl of solution F (plasminogen reagent) and the mixture was incubated at 37° C. for 15 min. After addition of 100 μl of 8.5 M acetic acid, the extinction at 405 nm was determined.
molecule,measurement,setting,value
NCCCCCC(=O)O [epsilon-aminocaproic acid],factor by which the reaction between plasmin and alpha2-antiplasmin is slowed down,[1],at least 10
OO [hydrogen peroxide],activity of thrombin at the dose inactivating AT III,human alpha-thrombin,without the activity of thrombin being impaired
same,concentration inactivating plasminogen activator inhibitors,[2],about 10 mM
same,"dose of hydrogen peroxide inactivating 50 pmol of AT III, as a multiple",[3],500 times the dose
protamine chloride,PAI measured in presence of polycation in the plasminogen activator reagent,PAI1,only PAI2 (and not PAI1) was measured
NCCCC[C@H](N)C(=O)O [lysine],factor by which the reaction between plasmin and alpha2-antiplasmin is slowed down,[1],at least 10
same,increase of the activity of urokinase,urokinase [4]; addition of lysine (10% lysine in distilled water),more than 100%
same,increase in the extinction compared with the sample without omega-amino carboxylic acid,urokinase [4]; without use of an oxidizing agent,more than 100%
N.N.O=S(=O)(O)OOS(=O)(=O)O [ammonium peroxodisulfate],dependence of the conversion of the chromogenic plasmin substrate on the quantity of alpha2-antiplasmin in the plasma,urokinase [4]; 5% (NH4)2S2O8 in distilled water,does not depend on the quantity of alpha2 -antiplasmin
NC[C@H]1CC[C@H](C(=O)O)CC1 [tranexamic acid],tranexamic acid concentration at maximum,"plasmin [5]; in the reaction mixture, basic buffer and PAI-deficient plasma",1 to 4 mM
same,factor by which the reaction between plasmin and alpha2-antiplasmin is slowed down,[1],at least 10
same,increase in plasmin activity with alpha2-antiplasmin-deficient plasma compared with normal plasma,plasmin [6],about 70%
same,delta A/4 min,plasmin [6]; Normal plasma without alpha2-antiplasmin,829 mA
same,delta A/4 min,plasmin [6]; Normal plasma,488 mA
O=S(=O)(NCl)c1ccccc1 [chloramine B],results with chloramine B in place of chloramine T,plasmin [5]; Comparison Experiment 5b,the same as represented for chloramine T
polylysine,PAI measured in presence of polycation in the plasminogen activator reagent,PAI1,only PAI2 (and not PAI1) was measured
B1,inactivation of alpha2-antiplasmin under the oxidizing conditions of the invention,plasmin [7],nearly completely inactivated
same,resistance of alpha2-antiplasmin to oxidation,plasmin [8],resistant to oxidation
B2,sensitivity to oxidation,urokinase [9],less sensitive to oxidation
